Results taken from US20110257242A1, “3-PHENYL-3-METHOXYPYRROLIDINE DERIVATIVES AS MODULATORS OF CORTICAL CATECHOLAMINERGIC NEUROTRANSMISSION” (NSAB, FILIAL AF NEUROSEARCH SWEDEN AB, SVERIGE, priority 2008, published 2011).

Test system: MK-801 pre-treated rats
Test: Locomotor activity in MK-801 pre-treated rats (antipsychotic activity model)
Details: MK-801 0.7 mg/kg i.p., no test compound, recorded between 30 and 60 minutes

## C[C@]12N[C@H](Cc3ccccc31)c1ccccc12 [MK-801]
  Locomotor activity, MK-801 alone: 48068 counts/30 min
